# Data: patent US5002948A, “3-[4-[4-substituted-1-piperazinyl]-1-butyl]-1H-2,3-dihydroindoles” (H. Lundbeck A/S, priority 1988, dated 1991)
# Experiments:
# Type in all cases: in vivo, Male Wistar rats
# [1] = molecular target: T1, 5-HT1A (Rattus norvegicus, UniProt P19327); test: Antagonism of the discriminative stimulus properties induced by 8-OHDPAT in rats; parameters: from tissue; host or cells: whole living animal, male Wistar rats, s.c. dosing; details: rat, sc, s.c. before 8-OHDPAT; rats trained at 0.4 mg/kg i.p.; inhibition of drug responding; read-out: ED50, 8-OH DPAT cue antagonism
# T1 sequence (P19327 1-422): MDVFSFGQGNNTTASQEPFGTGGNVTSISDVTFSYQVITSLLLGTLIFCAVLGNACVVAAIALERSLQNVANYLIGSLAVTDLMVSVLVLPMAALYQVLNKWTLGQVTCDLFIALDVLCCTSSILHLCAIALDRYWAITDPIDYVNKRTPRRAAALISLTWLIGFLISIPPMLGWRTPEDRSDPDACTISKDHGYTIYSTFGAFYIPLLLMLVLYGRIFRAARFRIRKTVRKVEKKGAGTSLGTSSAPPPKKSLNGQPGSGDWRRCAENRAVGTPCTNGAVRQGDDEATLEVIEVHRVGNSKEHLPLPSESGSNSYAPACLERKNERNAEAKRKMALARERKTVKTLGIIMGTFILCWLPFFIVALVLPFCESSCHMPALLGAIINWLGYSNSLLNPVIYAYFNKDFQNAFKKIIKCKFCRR
# Method: ANTAGONISM OF THE DISCRIMINATIVE STIMULUS PROPERTIES INDUCED BY 8-OHDPAT IN RATS.
# This test model is used to determine the antagonist effects of a test compound on 5-HT1A receptors in vivo. A related method is described by Tricklebank, M. D., J. Neill, E. J. Kidd and J. R. Fozard, Eur. J. Pharmacol. 133, 47-56, 1987; Arnt. J., Pharmacology & Toxicology 64, 165-172, 1989.
# Male Wistar rats are trained to discriminate between 8-OHDPAT (0.4 mg/kg, i.p., 15 min. pretreatment) and physiological saline in operant chambers equipped with two response levers. Between the levers a dipper is placed, where water rewards (0.1 ml) are presented. The rats are water deprived for at least 24 h and work in a fixed ratio (FR) schedule (final FR=32).
# Following 8-OHDPAT administration responding is reinforced only on a designated (drug) lever, whereas responding on the opposite lever has no consequences. Following saline administration responding is reinforced on the lever opposite to the drug lever. Drug and saline trials alternate randomly between training days, although the same treatment is given maximally at 3 consecutive days. The level of discrimination occuracy is expressed as the per cent drug responses and is calculated as the number of correct responses×100 divided by the sum of the correct and incorrect responses before the first reward. When stable occuracy (mean correct responding=90 per cent; individual rats at least 75 per cent correct responding) is obtained test sessions are included between training days. Test compound is injected s.c. at appropriate time before 8-OHDPAT and the test begins 15 min after 8-OHDPAT injection. The test trial is terminated when a total of 32 responses are made on either lever or when 20 min have elapsed. No reward is given and the rats have free access to water for 20-30 min after the test. The effects are expressed as per cent inhibition of drug responding. Only results from rats making at least 10 responses on one lever are included in data analysis. Furthermore, only test sessions in which at least half of the rats respond are included.
# The per cent inhibition of drug response obtained for each dose of test compound is used to calculate ED50 values by log-probit analysis.
# [2] = molecular target: T1, 5-HT1A; test: Generalization to discriminative stimulus properties induced by 8-OHDPAT in rats (agonism); parameters: from tissue; host or cells: whole living animal, male Wistar rats, s.c. dosing; details: rat, sc, usually 30 or 45 min before test; substituted for 8-OHDPAT; per cent drug response; read-out: ED50, 8-OH DPAT cue agonism
# From the text: GENERALIZATION TO DISCRIMINATIVE STIMULUS PROPERTIES INDUCED BY 8-OHDPAT IN RATS.
# This test model is used to determine the agonist effects of a test compound on 5-HT1A receptors in vivo. A related method is described by Tricklebank, M. D., J. Neill, E. J. Kidd and J. R. Fozard, Eur. J. Pharmacol. 133, 37-56, 1987; Arnt, J., Pharmacology & Toxicology 64, 165-172, 1989.
# The procedure is the same as for the antagonism test mentioned above, except that the test compound is substituted for 8-OHDPAT and injected s.c. usually 30 minutes or 45 minutes respectively before beginning of the test.
# The per cent drug response obtained for each dose of test compound is used to calculate ED50 values by log-probit analysis.
# [3] = molecular target: T1, 5-HT1A; test: Inhibition of 5-methoxy-N,N-dimethyltryptamine (5-MeODMT) induced 5-HT syndrome in rats; parameters: Male Wistar rats (Mol:Wist) weighing 170-240 g are used; from tissue; host or cells: whole living animal, male Wistar rats (Mol:Wist), s.c. dosing; details: rat, sc
# From the text: INHIBITION OF 5-METHOXY-N,N-[…] INDUCED 5-HT SYNDROME IN RATS
# The so-called 5-HT syndrome is a characteristic behaviour pattern which is induced by 5-HT agonists with effects on 5-HT, possibly 5-HT1A receptors, although lack of specific antagonists make it difficult to evaluate specificity (Smith, L. M. and S. J. Peroutka, Pharmacol. Biochem. & Behaviour 24, 1513-1519, 1986; Tricklebank, M. et al., Eur. J. Pharmacol. 117, 15-24, 1985).
# Male Wistar rats (Mol:Wist) weighing 170-240 g are used. Test substrate is injected subcutaneously 30 min. before 5-methoxy-N,N-dimethyltryptamine 5 mg/kg, s.c. Four rats are used for each dose. A control group pretreated with saline is included each test day. Ten, 15 and 20 min later the rats are observed for presence of serotonin (5-HT) syndrome: (1) forepaw treading ("piano playing"), (2) head weaving and (3) hindleg abduction. Further, flat motility is scored. Each part of the syndrome is scored as follows: marked effect (score 2), weak syndrome (score 1) and no effect (score 0). The scores of the three observation times are added. Thus the maximum obtainable score for four rats is 24. The effect of the test substance is expressed as per cent inhibition relative to the control group.
# The per cent inhibition of the piano playing syndrome is used as the response, and ED50 values are calculated by log-prohibit analysis.
compound,measurement,setting,value
"O=C1CC2(CCCC2)CC(=O)N1CCCCN1CCN(c2ncccn2)CC1 [buspirone, reference compound]",ED50,[1],> 0.8 µmol/kg
same,ED50,[2],0.62 µmol/kg
same,ED50,[3],4.3 µmol/kg
